This is an account of results in PMC3795654, “Combinatorial Optimization of Cystine-Knot Peptides towards High-Affinity Inhibitors of Human Matriptase-1” (PLoS ONE, 2013).

Read-outs that look alike come from different tables or passages of the source. Where a SMILES comes first, the peptide text is derived from it. Bridges are numbered along the chain shown (N, C = ends).

The target of one test is T1, Human matriptase-1 (Homo sapiens, UniProt Q9Y5Y6).
T1 construct: made in house
T1 sequence (Q9Y5Y6 615-855 limits assumed): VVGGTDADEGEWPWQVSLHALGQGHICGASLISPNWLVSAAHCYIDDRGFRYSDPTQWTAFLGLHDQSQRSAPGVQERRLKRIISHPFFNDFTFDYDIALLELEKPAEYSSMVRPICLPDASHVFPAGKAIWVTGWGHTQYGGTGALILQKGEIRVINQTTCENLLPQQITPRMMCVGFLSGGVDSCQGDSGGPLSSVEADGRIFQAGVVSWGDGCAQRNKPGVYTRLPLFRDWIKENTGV
Nature of the test: Matriptase-1 inhibition assay (Ki / Ki app). Format: biochemical.

Test [1] deals with T2, Bovine pancreatic trypsin (Bos taurus, UniProt P00760).
T2 construct: purchased Sigma-Aldrich
T2 sequence (P00760 24-246): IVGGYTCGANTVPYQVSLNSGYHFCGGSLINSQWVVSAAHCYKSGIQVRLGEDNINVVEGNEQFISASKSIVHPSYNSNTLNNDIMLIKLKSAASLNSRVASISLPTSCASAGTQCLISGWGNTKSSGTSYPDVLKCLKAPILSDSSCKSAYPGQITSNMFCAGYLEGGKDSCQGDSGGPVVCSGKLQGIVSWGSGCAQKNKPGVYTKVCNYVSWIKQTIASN
Nature of the test: Trypsin inhibition assay (substrate-independent Ki). The note with it: substrate-independent Ki from Ki app (Morrison equation) and Km; 250 µM substrate; preincubation 30 min RT; read over 30 min; triplicate. Format: biochemical.
Method: Bovine pancreatic trypsin, thrombin and uPA were purchased from Sigma-Aldrich and Hepsin from R&D Systems.
Measurements were carried out in triplicate using a Tecan Genios ELISA reader. The normalized residual proteolytic activity (v/v0) of proteases was determined using substrates Boc-QAR-pNA (250 µM, (pNA stands for para-nitro aniline), Boc-QAR-AMC (250 µM, AMC stands for amino-methyl coumarin) or Spectrozym tPA (250 µM, American Diagnostica, CH3SO2-D-CHT-Gly-Arg-pNA AcOH). Product formation was monitored after preincubation (30 min, RT) with inhibitor at different concentrations over 30 min by measuring the absorbance at 405 nm for pNA substrates or the fluorescence emission for AMC substrates (ex. 360 nm, em. 465 nm), respectively. Selectivity data were carried out in duplicates with final protease concentrations of uPA and thrombin of 5 nM. In case of hepsin 50 mM Tris/HCl pH 9.0 was used as assay buffer.
(§1) Apparent inhibition constants (Ki ^app) were calculated by fitting the Morrison equation (1) for tight-binding inhibitors to the relative reaction velocity using non-linear regression (Marquardt-Levenberg algorithm, Sigma Plot 11) [63].
(§2) Substrate-independent inhibition constants Ki were calculated from Ki ^app and Km of the enzyme according to (2).

[2] abbreviates: apparent inhibition constant (Morrison equation), MCoTI variants isolated from M. cochinchinensis seeds, oMCoTI-II synthetic, read-out: Kiapp towards matriptase-1.
The mark [3] stands for this setting: substrate-independent Ki from Ki app (Morrison equation) and Km, 250 µM substrate, preincubation 30 min RT, read over 30 min, triplicate, read-out: Ki (Matriptase-1).

Method for Human matriptase-1: Human matriptase-1 was produced recombinantly, autocatalytically activated and purified as previously reported [35], [49], [51], [60].
Measurements were carried out in triplicate using a Tecan Genios ELISA reader.
as §1, §2

For the compound `CC[C@H](C)[C@@H]1NC(=O)[C@@H]2CSSC[C@@H]3NC(=O)[C@H](C(C)C)NC(=O)CNC(=O)CNC(=O)C[C@@H](C(=O)O)NC(=O)[C@H](CO)NC(=O)CNC(=O)[C@H](CO)NC(=O)CNC(=O)[C@@H]4CSSC[C@H](NC(=O)[C@H](CC(=O)O)NC(=O)[C@H](CO)NC(=O)[C@H](CC(=O)O)NC(=O)[C@H](CCCNC(=N)N)NC(=O)[C@H](CCCNC(=N)N)NC(=O)[C@H](CSSC[C@H](NC1=O)C(=O)N[C@@H](CCCNC(=N)N)C(=O)NCC(=O)N[C@@H](CC(N)=O)C(=O)NCC(=O)N[C@@H](Cc1ccc(O)cc1)C(=O)N4)NC(=O)[C@H](CCCCN)NC(=O)[C@H](CCCCN)NC(=O)[C@H](CC(C)C)NC(=O)[C@H]([C@@H](C)CC)NC(=O)[C@H](CCCCN)NC(=O)[C@@H]1CCCN1C3=O)C(=O)N1CCC[C@H]1C(=O)NCC(=O)N[C@@H](C)C(=O)N2` [MCoTI-II (ß-asp), reference compound] (GGVCPKILKKCRRDSDCPGACICRGNGYCGSGSD-OH; disulfide 4-21, 11-23, 17-29; lactam N-34), at Human matriptase-1 (setting [2]), the Ki was found to be 388 ± 32 nM. The same measure, in the same setting: under `CC[C@H](C)[C@@H]1NC(=O)[C@@H]2CSSC[C@H](NC(=O)[C@@H](NC(=O)CNC(=O)[C@@H](N)CO)C(C)C)C(=O)N3CCC[C@H]3C(=O)N[C@@H](CCCCN)C(=O)N[C@@H]([C@@H](C)CC)C(=O)N[C@@H](CC(C)C)C(=O)N[C@@H](CCCCN)C(=O)N[C@@H](CCCCN)C(=O)N[C@H]3CSSC[C@H](NC1=O)C(=O)N[C@@H](CCCNC(=N)N)C(=O)NCC(=O)N[C@@H](CC(N)=O)C(=O)NCC(=O)N[C@@H](Cc1ccc(O)cc1)C(=O)N[C@H](C(=O)NCC(N)=O)CSSC[C@H](NC(=O)[C@H](CC(=O)O)NC(=O)[C@H](CO)NC(=O)[C@H](CC(=O)O)NC(=O)[C@H](CCCNC(=N)N)NC(=O)[C@H](CCCNC(=N)N)NC3=O)C(=O)N1CCC[C@H]1C(=O)NCC(=O)N[C@@H](C)C(=O)N2` [oMCoTI-II, reference compound] (H-SGVCPKILKKCRRDSDCPGACICRGNGYCG-NH2; disulfide 4-21, 11-23, 17-29) stands 276 ± 13 nM. In the case of `CC[C@H](C)[C@H](N)C(=O)NCC(=O)N[C@H](C(=O)N[C@H]1CSSC[C@@H]2NC(=O)[C@H](C)NC(=O)CNC(=O)[C@@H]3CCCN3C(=O)[C@@H]3CSSC[C@@H](C(=O)NCC(N)=O)NC(=O)[C@H](Cc4ccc(O)cc4)NC(=O)CNC(=O)[C@H](CC(N)=O)NC(=O)CNC(=O)[C@H](CCCNC(=N)N)NC(=O)[C@H](CSSC[C@H](NC(=O)[C@H](C)NC(=O)[C@H](CCCNC(=N)N)NC(=O)[C@H](CC(C)C)NC(=O)[C@H](CC(C)C)NC(=O)[C@H](CCCCN)NC(=O)[C@@H]4CCCN4C1=O)C(=O)N[C@@H](CCCNC(=N)N)C(=O)N[C@@H](CCCNC(=N)N)C(=O)N[C@@H](CC(=O)O)C(=O)N[C@@H](CO)C(=O)N[C@@H](CC(=O)O)C(=O)N3)NC(=O)[C@H]([C@@H](C)CC)NC2=O)C(C)C` [MCoTI Var. 1] (H-IGVCPKLLRACRRDSDCPGACICRGNGYCG-NH2; disulfide 4-21, 11-23, 17-29), the Ki in test [1] amounted to 31.7 ± 4.3 nM; at Human matriptase-1 (setting [3]), 4.4 ± 0.6 nM. The like results for `CC[C@H](C)[C@@H]1NC(=O)[C@@H]2CSSC[C@H](NC(=O)[C@H](CCCNC(=N)N)NC(=O)[C@H](CCCNC(=N)N)NC(=O)[C@@H](N)CC(N)=O)C(=O)N3CCC[C@H]3C(=O)N[C@@H](CCCCN)C(=O)N[C@@H](C(C)C)C(=O)N[C@@H](CC(C)C)C(=O)N[C@@H](CCCCN)C(=O)N[C@@H](C)C(=O)N[C@H]3CSSC[C@H](NC1=O)C(=O)N[C@@H](CCCNC(=N)N)C(=O)NCC(=O)N[C@@H](CC(N)=O)C(=O)NCC(=O)N[C@@H](Cc1ccc(O)cc1)C(=O)N[C@H](C(=O)NCC(N)=O)CSSC[C@H](NC(=O)[C@H](CC(=O)O)NC(=O)[C@H](CO)NC(=O)[C@H](CC(=O)O)NC(=O)[C@H](CCCNC(=N)N)NC(=O)[C@H](CCCNC(=N)N)NC3=O)C(=O)N1CCC[C@H]1C(=O)NCC(=O)N[C@@H](C)C(=O)N2` [MCoTI Var. 2] were, in that order, 19.2 ± 2.8 nM and 3.3 ± 0.4 nM.
